The results in this text go back to PubChem BioAssay AID588439 (The Scripps Research Institute Molecular Screening Center, 2011).

Each structure is given as a SMILES string. Active and inactive are the calls of the source.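 Rule for the calls: active = EC50 at or below 10 µM; inactive = EC50 above 10 µM.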

Sequence of Insulin-degrading enzyme (Homo sapiens) (P14735 whole entry, looked up): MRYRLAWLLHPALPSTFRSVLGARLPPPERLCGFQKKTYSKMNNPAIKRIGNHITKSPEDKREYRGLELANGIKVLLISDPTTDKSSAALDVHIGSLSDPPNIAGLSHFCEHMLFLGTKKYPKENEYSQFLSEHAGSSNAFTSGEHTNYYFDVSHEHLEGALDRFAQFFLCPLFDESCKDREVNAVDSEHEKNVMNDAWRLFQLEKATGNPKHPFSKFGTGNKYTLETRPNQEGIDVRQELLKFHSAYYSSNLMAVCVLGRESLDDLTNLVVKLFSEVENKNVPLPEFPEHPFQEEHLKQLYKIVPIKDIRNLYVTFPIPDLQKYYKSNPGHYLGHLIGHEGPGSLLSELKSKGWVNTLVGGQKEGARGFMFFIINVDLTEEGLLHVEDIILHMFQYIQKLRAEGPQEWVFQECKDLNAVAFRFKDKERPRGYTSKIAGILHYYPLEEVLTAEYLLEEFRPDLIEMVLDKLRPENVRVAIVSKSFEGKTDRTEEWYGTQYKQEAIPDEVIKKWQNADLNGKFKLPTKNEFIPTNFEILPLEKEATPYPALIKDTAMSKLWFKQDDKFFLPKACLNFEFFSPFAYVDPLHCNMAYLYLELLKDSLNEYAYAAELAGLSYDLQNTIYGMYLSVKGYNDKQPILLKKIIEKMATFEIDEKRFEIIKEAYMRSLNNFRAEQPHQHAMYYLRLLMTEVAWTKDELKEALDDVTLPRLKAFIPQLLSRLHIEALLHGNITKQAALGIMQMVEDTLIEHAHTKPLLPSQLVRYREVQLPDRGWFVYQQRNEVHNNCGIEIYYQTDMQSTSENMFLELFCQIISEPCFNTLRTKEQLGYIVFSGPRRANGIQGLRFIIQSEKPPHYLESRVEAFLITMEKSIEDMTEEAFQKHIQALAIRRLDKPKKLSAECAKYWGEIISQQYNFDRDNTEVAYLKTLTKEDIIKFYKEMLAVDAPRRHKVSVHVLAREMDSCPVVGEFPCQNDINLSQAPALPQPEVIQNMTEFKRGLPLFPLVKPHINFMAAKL

This experiment concerns the target Insulin-degrading enzyme (Homo sapiens) (UniProt P14735). The experiment in a line: activators of endogenous IDE in HEK cells, dose response, cell-based, fluorescence polarization (AID 588439). The conditions noted are these: FAbeta-B cleavage fluorescence polarization. In general terms: Polarisation of emitted light reports the rotation of a fluorescent probe.
The term EC50 denotes the concentration at which the effect is half-maximal. Take `C#CCOCCOCCOCCNc1nc(N2CCN(C(=O)CCCCCCCCCCNC(=O)Cn3cc(CCCCCN)nn3)CC2)nc(N2CCN(C(=O)CCCCCCCCCCNC(=O)Cn3cc(C[C@@H](C)O)nn3)CC2)n1`: the EC50 was > 54.7 µM (inactive). For `C#CCOCCOCCOCCNc1nc(N2CCN(C(=O)CCCCCCCCCCNC(=O)[C@H](CCCCN)n3cc(CCO)nn3)CC2)nc(N2CCN(C(=O)CCCCCCCCCCNC(=O)[C@H](CCCN=C(N)N)n3cc(C[C@@H](C)CC)nn3)CC2)n1`, the EC50 is > 54.7 µM (inactive).

`C#CCOCCOCCOCCNc1nc(N2CCN(C(=O)CCCCCCCCCCNC(=O)Cn3cc(C[C@@H](C)O)nn3)CC2)nc(N2CCN(C(=O)CCCCCCCCCCNC(=O)[C@H](CCCN=C(N)N)n3cc(C[C@@H](C)CC)nn3)CC2)n1`: the EC50 was > 54.7 µM (inactive).

Take `C#CCOCCOCCOCCNc1nc(N2CCN(C(=O)CCCCCCCCCCNC(=O)[C@H](CO)n3cc(CCCSC)nn3)CC2)nc(N2CCN(C(=O)CCCCCCCCCCNC(=O)[C@H](CCCCN)n3cc(CCO)nn3)CC2)n1`: the EC50 was > 54.7 µM (inactive).
